Data reported in patent US4285956A, “Xanthene and thioxanthene derivatives, compositions thereof and treatment therewith” (priority 1978, dated 1981).

Experiments:
[1] = Amphetamine antagonism (stereotypy in rats); type: in vivo; settings: Rattus norvegicus
[2] = Catalepsy wire mesh, rat, max.; type: in vivo, rats; settings: for ED50: Rattus norvegicus, sc, rats, s.c., strongest effect within first 6 hours, read-out: Catalepsy wire mesh, rat, max. ED50
Method: Catalepsy wire mesh, rat, max. (ED50 mg/kg s.c.)
A vertical wire netting (50 cm×49 cm). The meshes (openings) of the netting are square (1 cm×1 cm). The wire diameter is 2 mm. Stop watch. Rats, male, 180-200 g.
The animals are labeled and used in groups of five. The test substance is injected subcutaneously (s.c.) (5 ml/kg) at 4 dose levels selected from the fixed dose scale.
The animals are placed in the middle of the vertical wire netting 60, 120, 180, 240, 300 and 360 minutes after injection of the test compound. The animals are considered cataleptic when they remain immobile during a period of 15 seconds. This cataleptic reaction is designated +. If the rats are "atonic" and passively slide down the wire mesh they are considered not cataleptic. If the animals climb up and down the wire mesh they are nor cataleptic. In both situations the designation - is used.

[3] = Neuroleptic effect: duration and strength (remarks of Table 2); type: in vivo; settings: in words; for Duration (remarks, words): duration of neuroleptic effect; for Strength of effect (remarks, words): strength of neuroleptic effect
Description: The pharmacological testing of the novel xanthones and thioxanthenes of Formula I consisted of standard and reliable tests. […]

[4] = Methylphenidate antagonism (mice biting corrugated paper); type: in vivo; settings: Mus musculus, ip
Method: Methylphenidate antagonism (ED50 mg/kg i.p.)
Perspex observation cages without bottom and lid, consisting of 5 sections each measuring 12×25×30 cm. White corrugated paper. Mice, male, 18-25 g.
The test substance is given i.p. in the doses 0, 1/8, 1/32 and 1/128 of the determined "i.p. LD50". 3×2 mice are used for each dose level. Two or 24 hours after injection of test substance, methylphenidate, 60 mg/kg, is injected s.c. After administration of methylphenidate the mice are placed in the observation cages, 2 in each cage, where they remain for exactly 1 hour. The cages are placed on corrugated paper, the corrugations facing upwards. It is examined whether the mice have been biting the corrugated paper or not. […] If one or more of the control pairs have not been biting, the test has to be repeated on a new set of mice.
The result is stated in fractions: 0/3, 1/3, 2/3 and 3/3 where 0, 1, 2 and 3 are the number of pairs which have not been biting on receipt of the dose in question.
The results are calculated as the dose (ED50), which causes antagonism in 50% of the test animals.

[5] = ip, 24 h, read-out: Amphetamine antagonism ED50
[6] = mice, i.p., methylphenidate 60 mg/kg s.c. 2 h after test substance, read-out: Methylphenidate antagonism ED50, 2 h
[7] = mice, i.p., methylphenidate 60 mg/kg s.c. 24 h after test substance, read-out: Methylphenidate antagonism ED50, 24 h
[8] = po, read-out: Amphetamine antagonism ED50, p.o.
[9] = 2 h, read-out: Methylphenidate antagonism ED50, 2 h
[10] = 24 h, read-out: Methylphenidate antagonism ED50, 24 h

Compound	ED50 [1, 5]	ED50 [2]	Duration (remarks, words) [3]	Strength of effect (remarks, words) [3]	ED50 [4, 6]	ED50 [4, 7]	Cataleptic activity ([2]; in words)	ED50 [1, 8]	ED50 [4, 9]	ED50 [4, 10]
O=C1OCCN1CCN1CCC(=C2c3ccccc3Sc3ccc(Cl)cc32)CC1 [Lu 14-106, 1-(2-(2-Oxazolidinone-3-yl)ethyl)-4-(2-chloro-9-thioxanthenylidene)piperidine]	1 mg/kg	6.6 mg/kg	short acting	strong	0.51 mg/kg	> 40 mg/kg				
CSc1ccc2c(c1)C(=C1CCN(C[C@H]3CC[C@H](O)CC3)CC1)c1ccc(F)cc1S2 [Lu 14-116, 1-(trans-4-hydroxycyclohexylmethyl)-4-(2-methylthio-6-fluoro-9-thioxanthenylidene)-piperidine]	0.28 mg/kg	0.58 mg/kg	long acting	strong	0.44 mg/kg	0.38 mg/kg				
O=C1OCCN1CCN1CCC(=C2c3ccc(F)cc3Sc3ccc(Cl)cc32)CC1 [Lu 14-117, 1-(2-(2-Oxazolidinon-3-yl)ethyl)-4-(2-chloro-6-fluoro-9-thioxanthenylidene)piperidine]	0.34 mg/kg	1 mg/kg	short acting	strong	0.21 mg/kg	29 mg/kg				
Fc1ccc2c(c1)Sc1ccc(C(F)(F)F)cc1C2=C1CCN(CC2CCOCO2)CC1 (stereo not drawn) [Lu 14-130, 1-(1,3-Dioxan-4-ylmethyl)-4-(2-trifluoromethyl-6-fluoro-9-thioxanthenylidene)piperidine]	0.62 mg/kg	2.8 mg/kg	long acting	moderately strong	0.77 mg/kg	0.7 mg/kg				
O[C@H]1CC[C@@H](CN2CCC(=C3c4ccc(F)cc4Sc4ccc(C(F)(F)F)cc43)CC2)CC1 [Lu 15-013, 1-(cis-4-hydroxycyclohexylmethyl)-4-(2-trifluoromethyl-6-fluoro-9-thioxanthenylidene)piperidene]	0.76 mg/kg	1.2 mg/kg	long acting	strong	0.63 mg/kg	0.1 mg/kg				
CSc1ccc2c(c1)C(=C1CCN(C[C@H]3CC[C@H](O)CC3)CC1)c1ccccc1S2 [Lu 15-019, 1-(trans-4-hydroxycyclohexylmethyl)-4-(2-methylthio-9-thioxanthenylidene)-piperidine]	0.59 mg/kg	0.6 mg/kg	short acting	moderately strong	0.77 mg/kg	> 40 mg/kg				
OC1CC(O)(CN2CCC(=C3c4ccc(F)cc4Sc4ccc(C(F)(F)F)cc43)CC2)CC(O)C1O (stereo not drawn) [Lu 15-089]	1.8 mg/kg	2.7 mg/kg	relatively short acting		0.32 mg/kg	0.32 mg/kg				
CSc1ccc2c(c1)C(=C1CCN(C[C@H]3CC[C@H](O)CC3)CC1)c1ccc(F)cc1O2 [Lu 15-119, 1-(Trans-4-hydroxycyclohexylmethyl)-4-(2-methylthio-6-fluoro-9-xanthenylidene)piperidine]	0.56 mg/kg	0.08 mg/kg	long acting	very strong	0.09 mg/kg	0.11 mg/kg	have a cataleptic activity			
Cc1ccc2c(c1)Sc1ccc(C(F)(F)F)cc1C2=C1CCN(C[C@H]2CC[C@H](O)CC2)CC1 [Lu 16-014, 1-(trans-4-hydroxycyclohexylmethyl)-4-(2-trifluoromethyl-6-methyl-9-thioxanthenylidene)-piperidine]	1 mg/kg	0.97 mg/kg	long acting	moderately strong	0.31 mg/kg	1.9 mg/kg				
N[C@H]1CC[C@H](CN2CCC(=C3c4ccc(F)cc4Sc4ccc(C(F)(F)F)cc43)CC2)CC1 [Lu 16-042]		3.3 mg/kg	long acting	strong	1.2 mg/kg	0.17 mg/kg		2.5 mg/kg		
COc1ccc2c(c1)C(=C1CCN(C[C@H]3CC[C@H](O)CC3)CC1)c1ccc(F)cc1S2 [Lu 16-052, 1-(trans-4-hydroxycyclohexylmethyl)-4-(2-methoxy-6-fluoro-9-thioxanthenylidene)-piperidine]	0.56 mg/kg	0.23 mg/kg	short acting	moderately strong	0.31 mg/kg	29 mg/kg				
O=C1CCC(CN2CCC(=C3c4ccc(F)cc4Sc4ccc(C(F)(F)F)cc43)CC2)CC1 [Lu 16-088]		0.81 mg/kg	long acting	strong	0.77 mg/kg	0.06 mg/kg		0.3 mg/kg		
O=C1NCCN1CCN1CCC(=C2c3ccc(F)cc3Sc3ccc(C(F)(F)F)cc32)CC1 [Lu 16-104]	0.15 mg/kg	0.11 mg/kg	relatively short acting	strong	0.06 mg/kg	1.5 mg/kg				
O=C1NCCN1CCN1CCC(=C2c3ccccc3Sc3ccc(Cl)cc32)CC1 [Lu 16-105]	1.2 mg/kg	0.38 mg/kg	short acting	strong	0.16 mg/kg	28 mg/kg				
CN(C)CCCN1c2ccccc2Sc2ccc(Cl)cc21 [chlorpromazine, reference compound]	7.1 mg/kg	5.6 mg/kg	short acting	moderatley strong					4 mg/kg	20 mg/kg
CN(C)CC/C=C1/c2ccccc2Sc2ccc(Cl)cc21 [chlorprothixene, reference compound]	6.1 mg/kg	4 mg/kg	short acting	moderately strong					0.71 mg/kg	> 20 mg/kg
OCCN1CCN(CCC=C2c3ccccc3Sc3ccc(Cl)cc32)CC1 [clopenthixol, reference compound]	0.77 mg/kg	0.95 mg/kg	short acting	moderately strong	1.2 mg/kg					
CN1CCN(C2=Nc3cc(Cl)ccc3Nc3ccccc32)CC1 [clozapine, reference compound]	> 40 mg/kg	85 mg/kg	short acting	weak					> 160 mg/kg	
OCCN1CCN(CCC=C2c3ccccc3Sc3ccc(C(F)(F)F)cc32)CC1 [flupentixol, reference compound]	0.69 mg/kg	0.25 mg/kg	short acting	strong					0.2 mg/kg	> 20 mg/kg
OCCN1CCN(CCCN2c3ccccc3Sc3ccc(C(F)(F)F)cc32)CC1 [fluphenazine, reference compound]	0.08 mg/kg	0.099 mg/kg	short acting	very strong					0.04 mg/kg	3.6 mg/kg
O=C(CCCN1CCC(O)(c2ccc(Cl)cc2)CC1)c1ccc(F)cc1 [haloperidol, reference compound]	0.14 mg/kg	0.21 mg/kg	short acting	very strong					0.06 mg/kg	
